Where a name gives a salt, the structure may show the parent alone.
Key:
ATM = ATM (Homo sapiens (Human), UniProt Q13315); assay: ATM in Cell Western Assay (pKAP1 in etoposide-treated MCF-7 cells); assay type: cell-based
Procedure, shortened: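 After paraformaldehyde fixation and Triton X-100 permeabilization, immunostained plates were read by infrared scanning (ODYSSEY CLx). Compound was given as 10 doses, 3-fold dilutions from a 1 μM final top concentration.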

DNA-PK = DNA-PK (Homo sapiens (Human), UniProt P78527); assay: DNA-PK Enzyme-Linked Immunosorbent Assay (phosphorylation of GST-p53 (1-101) peptide); assay type: biochemical; conditions: ELISA
Procedure, shortened: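 Inhibition measured by 450 nm absorbance after HRP/TMB detection of phospho-Ser15 on immobilized GST-p53 (1-101). The kinase reaction used 0.1 μg/mL DNA-PK and 20 μM ATP, 1 h at 25 °C. Ten 3-fold compound dilutions, top final concentration 100 nM.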

[1] = pKAP1 in etoposide-treated MCF-7 cells
[2] = MCF-7 cells, etoposide 100 μM, 1 hr, pKAP1 readout

Sequence of ATM (Q13315 whole entry): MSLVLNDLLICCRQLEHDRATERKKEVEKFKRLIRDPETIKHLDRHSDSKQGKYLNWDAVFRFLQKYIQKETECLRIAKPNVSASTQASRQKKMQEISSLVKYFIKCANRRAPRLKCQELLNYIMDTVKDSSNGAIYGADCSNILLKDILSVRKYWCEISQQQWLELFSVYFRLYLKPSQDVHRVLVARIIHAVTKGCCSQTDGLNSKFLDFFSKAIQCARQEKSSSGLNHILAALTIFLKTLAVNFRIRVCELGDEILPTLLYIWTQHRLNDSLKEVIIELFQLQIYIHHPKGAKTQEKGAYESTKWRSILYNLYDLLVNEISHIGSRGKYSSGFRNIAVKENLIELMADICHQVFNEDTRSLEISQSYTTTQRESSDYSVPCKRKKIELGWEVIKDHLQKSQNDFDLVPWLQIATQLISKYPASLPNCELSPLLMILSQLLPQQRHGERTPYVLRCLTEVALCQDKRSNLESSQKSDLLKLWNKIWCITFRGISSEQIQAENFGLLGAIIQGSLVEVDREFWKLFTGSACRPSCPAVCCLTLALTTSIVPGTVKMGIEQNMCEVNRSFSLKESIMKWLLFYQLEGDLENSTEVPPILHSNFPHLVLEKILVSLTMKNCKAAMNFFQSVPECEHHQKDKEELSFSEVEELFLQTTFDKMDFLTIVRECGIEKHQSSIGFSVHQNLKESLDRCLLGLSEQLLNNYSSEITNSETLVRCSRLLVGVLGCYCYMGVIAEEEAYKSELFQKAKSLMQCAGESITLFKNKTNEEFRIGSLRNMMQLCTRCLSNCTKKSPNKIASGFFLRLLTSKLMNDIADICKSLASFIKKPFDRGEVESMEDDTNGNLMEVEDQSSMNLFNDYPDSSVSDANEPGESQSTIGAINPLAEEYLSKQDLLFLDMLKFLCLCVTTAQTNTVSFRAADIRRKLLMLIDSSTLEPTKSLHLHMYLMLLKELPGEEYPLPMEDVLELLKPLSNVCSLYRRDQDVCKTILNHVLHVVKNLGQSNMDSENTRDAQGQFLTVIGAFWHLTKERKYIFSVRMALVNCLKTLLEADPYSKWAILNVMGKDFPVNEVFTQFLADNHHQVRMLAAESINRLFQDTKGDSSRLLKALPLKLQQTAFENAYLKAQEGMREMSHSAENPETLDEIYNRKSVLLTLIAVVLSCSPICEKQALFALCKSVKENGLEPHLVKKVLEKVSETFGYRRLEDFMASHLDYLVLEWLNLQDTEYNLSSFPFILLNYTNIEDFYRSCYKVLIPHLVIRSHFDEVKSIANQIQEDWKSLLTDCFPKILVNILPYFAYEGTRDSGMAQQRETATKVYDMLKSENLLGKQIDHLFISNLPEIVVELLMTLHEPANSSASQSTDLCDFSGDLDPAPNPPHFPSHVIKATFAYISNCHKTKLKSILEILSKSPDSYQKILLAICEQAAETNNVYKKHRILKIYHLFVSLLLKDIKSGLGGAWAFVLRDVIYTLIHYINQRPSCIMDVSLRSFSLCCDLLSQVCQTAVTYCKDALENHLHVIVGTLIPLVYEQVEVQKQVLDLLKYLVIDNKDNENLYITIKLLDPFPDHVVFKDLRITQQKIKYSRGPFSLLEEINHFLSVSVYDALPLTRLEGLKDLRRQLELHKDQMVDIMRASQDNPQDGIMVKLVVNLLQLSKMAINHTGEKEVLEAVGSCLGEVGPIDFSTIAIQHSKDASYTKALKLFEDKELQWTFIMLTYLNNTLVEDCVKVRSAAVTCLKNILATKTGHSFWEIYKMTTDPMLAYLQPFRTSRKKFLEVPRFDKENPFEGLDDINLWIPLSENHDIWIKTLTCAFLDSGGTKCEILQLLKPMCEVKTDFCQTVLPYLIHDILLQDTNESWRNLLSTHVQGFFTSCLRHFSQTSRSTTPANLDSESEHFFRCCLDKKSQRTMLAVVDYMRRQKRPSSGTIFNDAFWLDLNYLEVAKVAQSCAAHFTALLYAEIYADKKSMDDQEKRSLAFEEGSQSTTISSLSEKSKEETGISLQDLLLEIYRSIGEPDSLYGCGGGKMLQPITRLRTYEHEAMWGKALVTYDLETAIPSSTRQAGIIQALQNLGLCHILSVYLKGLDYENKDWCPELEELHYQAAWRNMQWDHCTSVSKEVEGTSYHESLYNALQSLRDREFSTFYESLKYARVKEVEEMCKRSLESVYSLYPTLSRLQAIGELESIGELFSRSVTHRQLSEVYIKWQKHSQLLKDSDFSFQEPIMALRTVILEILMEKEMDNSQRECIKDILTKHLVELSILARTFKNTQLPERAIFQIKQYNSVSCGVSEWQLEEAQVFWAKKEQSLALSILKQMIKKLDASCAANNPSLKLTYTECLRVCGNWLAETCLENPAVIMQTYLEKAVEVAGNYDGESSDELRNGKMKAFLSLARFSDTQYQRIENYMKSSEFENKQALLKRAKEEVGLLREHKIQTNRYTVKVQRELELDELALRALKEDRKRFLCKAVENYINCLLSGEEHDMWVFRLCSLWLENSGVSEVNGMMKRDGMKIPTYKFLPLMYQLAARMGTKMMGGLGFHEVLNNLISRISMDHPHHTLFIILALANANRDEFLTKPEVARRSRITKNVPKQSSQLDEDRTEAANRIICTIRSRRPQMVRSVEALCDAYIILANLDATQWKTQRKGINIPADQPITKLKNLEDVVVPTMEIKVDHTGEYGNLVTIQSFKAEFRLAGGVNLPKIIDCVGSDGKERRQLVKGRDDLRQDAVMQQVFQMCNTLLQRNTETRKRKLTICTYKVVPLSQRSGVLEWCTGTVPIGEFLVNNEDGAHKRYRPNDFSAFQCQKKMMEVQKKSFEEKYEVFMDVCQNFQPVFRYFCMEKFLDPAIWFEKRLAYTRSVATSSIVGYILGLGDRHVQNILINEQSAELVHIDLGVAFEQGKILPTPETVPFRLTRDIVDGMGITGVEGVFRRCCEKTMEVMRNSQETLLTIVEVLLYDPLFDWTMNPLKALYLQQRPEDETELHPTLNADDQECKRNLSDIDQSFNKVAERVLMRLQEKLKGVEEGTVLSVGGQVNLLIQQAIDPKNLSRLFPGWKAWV

SMILES | IC50 (ATM; [1]) | IC50 (DNA-PK; 20 μM ATP) | IC50 (ATM; [2]) | IC50 (DNA-PK; ATP 20 μM)
Cc1ncc(S(=O)(=O)Nc2cc(-c3cc4c5c(cnc4cc3F)N(C)C(=O)C53CN(c4ccccc4)C3)cnc2OCCNC(C)C)s1 [Example 520, N-(5-(7′-Fluoro-3′-methyl-2′-oxo-1-phenyl-2′,3′-dihydrospiro[azetidine-3,1′-pyrrolo[2,3-c]quinolin]-8′-yl)-2-(2-(isopropylamino)ethoxy)pyridin-3-yl)-2-methylthiazole-5-sulfonamide] | 1 to 100 nM | 1 to 100 nM | – | –
CC(C)NCCOc1ncc(-c2cc3c(cc2F)ncc2c3[C@]3(C[C@H](Nc4ccccc4)C3)C(=O)N2C)cc1NS(C)(=O)=O [Example 459, cis-N-(5-(7′-Fluoro-3′-methyl-2′-oxo-3-(phenylamino)-2′,3′-dihydrospiro[cyclobutane-1,1′-pyrrolo[2,3-c]quinolin]-8′-yl)-2-(2-(isopropylamino)ethoxy)pyridin-3-yl)methanesulfonamide] | 1 to 100 nM | 0.5 to 1 nM | – | –
CN1C(=O)C2(CC2)c2c1cnc1ccc(-c3cnc(N)nc3)cc21 [Example 48, 8′-(2-Aminopyrimidin-5-yl)-3′-methylspiro [cyclopropane-1,1′-pyrrolo [2,3-c]quinolin]-2′(3′-H)-one] | – | – | 1 to 100 nM | 0.5 to 1 nM
CC(C)NCCOc1ncc(-c2cc3c(cc2F)ncc2c3[C@]3(C[C@H](Oc4ccccc4)C3)C(=O)N2C)cc1NS(C)(=O)=O [Example 400, cis-N-(5-(7′-Fluoro-3′-methyl-2′-oxo-3-phenoxy-2′,3′-dihydrospiro[cyclobutane-1,1′-pyrrolo[2,3-c]quinolin]-8′-yl)-2-(2-(isopropylamino)ethoxy)pyridin-3-yl)methanesulfonamide] | 0.5 to 1 nM | 1 to 100 nM | – | –
CC(C)NCCOc1ncc(-c2cc3c4c(cnc3cc2F)N(C)C(=O)C42CCC2)cc1NS(=O)(=O)N1CC(F)C1 [Example 371, 3-Fluoro-N-(5-(7′-fluoro-3′-methyl-2′-oxo-2′,3′-dihydrospiro[cyclobutane-1,1′-pyrrolo[2,3-c]quinolin]-8′-yl)-2-(2-(isopropylamino)ethoxy)pyridin-3-yl)azetidine-1-sulfonamide] | 1 to 100 nM | 1 to 100 nM | – | –
CN1C(=O)C2(CCC2)c2c1cnc1cc(F)c(-c3cnc(N4CC(N(C)C)C4)c(NS(=O)(=O)C4CC4)c3)cc21 [Example 319, N-(2-(3-(Dimethylamino)azetidin-1-yl)-5-(7′-fluoro-3′-methyl-2′-oxo-2′,3′-dihydrospiro[cyclobulane-1,1′-pyrrolo[2,3-c]quinolin]-8′-yl)pyridin-3-yl)cyclopropanesulfonamide hydrochloride] | – | – | 1 to 100 nM | 1 to 100 nM
CN(C)CCCCOc1ncc(-c2ccc3ncc4c(c3c2)C2(CC2)C(=O)N4C)cc1NS(=O)(=O)c1ccccc1 [Example 35, N-(2-(4-(Dimethylamino)butoxy)-5-(3′-methyl-2′-oxo-2′,3′-dihydrospiro [cyclopropane-1,1′-pyrrolo[2,3-c]quinolin]-8′-yl)pyridin-3-yl)benzenesulfonamide] | – | – | 1 to 100 nM | 0.5 to 1 nM
CC(C)NCCOc1ncc(-c2cc3c(cc2F)ncc2c3[C@]3(C[C@H](OC(C)c4ccccc4)C3)C(=O)N2C)cc1NS(C)(=O)=O (stereo partly drawn) [Example 397, cis-N-(5-(7′-Fluoro-3′-methyl-2′-oxo-3-(1-phenylethoxy)-2′,3′-dihydrospiro[cyclobutane-1,1′-pyrrolo[2,3-c]quinolin]-8′-yl)-2-(2-(isopropylamino)ethoxy)pyridin-3-yl)methanesulfonamide] | 1 to 100 nM | < 0.5 nM | – | –
CC(C)NCCOc1ncc(-c2cc3c4c(cnc3cc2F)N(C)C(=O)C42CN(C(C)C)C2)cc1NS(=O)(=O)C1CC1 [Example 484, N-(5-(7′-Fluoro-1-isopropyl-3′-methyl-2′-oxo-2′,3′-dihydrospiro[azetidine-3,1′-pyrrolo[2,3-c]quinolin]-8′-yl)-2-(2-(isopropylamino)ethoxy)pyridin-3-yl)cyclopropanesulfonamide] | 1 to 100 nM | 1 to 100 nM | – | –

More lines, now with the values ahead:

IC50 (ATM; [1]) | IC50 (DNA-PK; 20 μM ATP) | IC50 (ATM; [2]) | IC50 (DNA-PK; ATP 20 μM) | SMILES
1 to 100 nM | 1 to 100 nM | – | – | CC(C)NCCOc1ncc(-c2cc3c(cc2F)ncc2c3[C@]3(C[C@H](c4cccc(F)c4)C3)C(=O)N2C)cc1NS(C)(=O)=O [Example 424, cis-N-(5-(7′-Fluoro-3-(3-fluorophenyl)-3′-methyl-2′-oxo-2′,3′-dihydrospiro[cyclobutane-1,1′-pyrrolo[2,3-c]quinolin]-8′-yl)-2-(2-(isopropylamino)ethoxy)pyridin-3-yl)methanesulfonamide]
– | – | 1 to 100 nM | < 0.5 nM | Cc1cc(S(=O)(=O)Nc2cc(-c3ccc4ncc5c(c4c3)C3(CCC3)C(=O)N5C)cnc2OCCCN(C)C)sn1 [Example 170, N-(2-(3-(Dimethylamino)propoxy)-5-(3′-methyl-2′-oxo-2′,3′-dihydrospiro [cyclobutane-1,1′-pyrrolo[2,3-c]quinolin]-8′-yl)pyridin-3-yl)-3-methylisothiazole-5-sulfonamide hydrochloride]
– | – | 1 to 100 nM | 0.5 to 1 nM | CNCCOc1ncc(-c2ccc3ncc4c(c3c2)C2(CC2)C(=O)N4C)cc1NS(=O)(=O)c1ccccc1 [Example 43, N-(5-(3′-Methyl-2′-oxo-2′,3′-dihydrospiro [cyclopropane-1,1′-pyrrolo[2,3-c]quinolin]-8′-yl)-2-(2-(methylamino)ethoxy)pyridin-3-yl) benzenesulfonamide]
– | – | 1 to 100 nM | 1 to 100 nM | CN1C(=O)C2(CC2)c2c1cnc1ccc(-c3cnc(OCCC4CCCN4C)c(NS(=O)(=O)c4ccccc4)c3)cc21 (centres unmarked) [Example 78, N-(5-(3′-Methyl-2′-oxo-2′,3′-dihydrospiro[cyclopropane-1,1′-pyrrolo[2,3-c]quinolin]-8′-yl)-2-(2-(1-methylpyrrolidin-2-yl)ethoxy)pyridin-3-yl)benzenesulfonamide]
– | – | 1 to 100 nM | 0.5 to 1 nM | CN(C)CCCOc1ncc(-c2ccc3ncc4c(c3c2)C2(CCC2)C(=O)N4C)cc1NS(=O)(=O)c1ccc(C#N)nc1 [Example 147, 6-Cyano-N-(2-(3-(dimethylamino)propoxy)-5-(3′-methyl-2′-oxo-2′,3′-dihydrospiro[cyclobulane-1,1′-pyrrolo[2,3-c]quinolin]-8′-yl)pyridin-3-ylpyridine-3-sulfonamide hydrochloride]
– | – | 1 to 100 nM | 1 to 100 nM | CN(C)CCCOc1ncc(-c2ccc3ncc4c(c3c2)C2(COC2)C(=O)N4C)cc1NS(=O)(=O)C1CC1 [Example 47, N-(2-(3-(Dimethylamino)propoxy)-5-(3′-methyl-2′-oxo-2′,3′-dihydrospiro [oxetane-3,1′-pyrrolo[2,3-c]quinolin]-8′-yl)pyridin-3-yl)cyclopropanesulfonamide]
– | – | 1 to 100 nM | > 100 nM | CN(C)CCCOc1ncc(-c2ccc3ncc4c(c3c2)C2(CC2)C(=O)N4C)cn1 [Example 71, 8′-(2-(3-(Dimethylamino)propoxy)pyrimidin-5-yl)-3′-methylspiro [cyclopropane-1,1′-pyrrolo[2,3-c]quinolin]-2′(3′-H)-one]
– | – | 1 to 100 nM | 0.5 to 1 nM | CN1C(=O)C2(CCC2)c2c1cnc1ccc(-c3cnc(OCCCN4CCC(F)C4)c(NS(C)(=O)=O)c3)cc21 (centres unmarked) [Example 279, N-(2-(3-(3-Fluoropyrrolidin-1-yl)propoxy)-5-(3′-methyl-2′-oxo-2′,3′-dihydrospiro[cyclobutane-1,1′-pyrrolo[2,3-c]quinolin]-8′-yl)pyridin-3-yl)methanesulfonamide]
– | – | 1 to 100 nM | 1 to 100 nM | CC1CCCN1S(=O)(=O)Nc1cc(-c2ccc3ncc4c(c3c2)C2(CCC2)C(=O)N4C)cnc1OCCCN(C)C (centres unmarked) [Example 172, N-(2-(3-(Dimethylamino)propoxy)-5-(3′-methyl-2′-oxo-2′,3′-dihydrospiro [cyclobulane-1,1′-pyrrolo[2,3-c]quinolin]-8′-yl)pyridin-3-yl)-2-methylpyrrolidine-1-sulfonamide]
– | – | 1 to 100 nM | < 0.5 nM | CN(C)CCCOc1ncc(-c2ccc3ncc4c(c3c2)C2(CCC2)C(=O)N4C)cc1NS(=O)(=O)c1cncs1 [Example 169, N-(2-(3-(Dimethylamino)propoxy)-5-(3′-methyl-2′-oxo-2′,3′-dihydrospiro [cyclobutane-1,1′-pyrrolo [2,3-c]quinolin]-8′-230 yl)pyridin-3-yl)thiazole-5-sulfonamide hydrochloride]
– | – | 1 to 100 nM | 0.5 to 1 nM | CN(C)CCCOc1ncc(-c2ccc3ncc4c(c3c2)C2(CCC2)C(=O)N4C)cc1NS(=O)(=O)c1cc(F)cc(Cl)c1 [Example 171, 3-Chloro-N-(2-(3-(dimethylamino)propoxy)-5-(3′-methyl-2′-oxo-2′,3′-dihydrospiro[cyclobutane-1,1′-pyrrolo[2,3-c]quinolin]-8′-yl)pyridin-3-yl)-5-fluorobenzenesulfonamide hydrochloride]
– | – | 1 to 100 nM | < 0.5 nM | CN(C)CCCOc1ncc(-c2ccc3ncc4c(c3c2)C2(CCC2)C(=O)N4C)cc1NS(=O)(=O)c1ccc(O)cc1 [Example 220, N-(2-(3-(Dimethylamino)propoxy)-5-(3′-methyl-2′-oxo-2′,3′-dihydrospiro [cyclobutane-1,1′-pyrrolo[2,3-c]quinolin]-8′-yl)pyridin-3-yl)-4-hydroxybenzenesulfonamide hydrochloride]
– | – | 1 to 100 nM | 1 to 100 nM | CN1C(=O)C2(CCC2)c2c1cnc1cc(F)c(-c3cnc(OCCCN4CCC(F)CC4)c(NS(C)(=O)=O)c3)cc21 [Example 297, N-(5-(7′-Fluoro-3′-methyl-2′-oxo-2′,3′-dihydrospiro[cyclobutane-1,1′-pyrrolo[2,3-c]quinolin]-8′-yl)-2-(3-(4-fluoropiperidin-1-yl)propoxy)pyridin-3-yl)methanesulfonamide hydrochloride]
